From PubChem BioAssay (NCI)
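Values below derive from 48-hour exposures of cells grown in 96-well plates, with endpoints linearly interpolated between the two concentrations bracketing the appropriate inhibition level. GI50: concentration for 50% inhibition of growth. TGI marks complete inhibition of growth.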

Tests used:
Assay in all cases: DTP human tumour cell line panel, 48 h
[1] = system: HCC-2998 colon
[2] = system: HOP-62 NSCLC
[3] = system: HS 578T breast
[4] = system: MDA-MB-435
[5] = system: MOLT-4 leukemia
[6] = system: NCI-H460 lung
[7] = system: NCI/ADR-RES ovarian
[8] = system: OVCAR-8 ovarian
[9] = system: SF-295 CNS
[10] = system: SK-MEL-2 melanoma

For O=C1c2ccccc2-[n+]2ccc3c([nH]c4ccccc43)c21, the TGI [1] was 0.484 µM, the TGI [2] was 2.56 µM and the TGI [3] was over 31.6 µM. It also gave a TGI [4] of 0.329 µM, a TGI [5] of 0.613 µM and a TGI [6] of 1.43 µM. For the same molecule, the TGI [7] was 4.61 µM, the TGI [8] was over 100 µM and the TGI [9] was 1.04 µM. For the same molecule, the TGI [10] was 0.427 µM.

Nc1nonc1-c1nc2cnccc2n1C1CC1 showed a GI50 [1] of 12.4 µM, a TGI [1] of over 25 µM and a GI50 [2] of 5.33 µM. It also gave a TGI [2] of over 16.8 µM, a GI50 [3] of 1.16 µM and a TGI [3] of 9.54 µM. For the same molecule, the GI50 [4] was 11.2 µM, the TGI [4] was over 25 µM and the GI50 [5] was 12.1 µM. The TGI [5] was over 25 µM, the GI50 [6] was 6.83 µM and the TGI [6] was over 25 µM. It also gave a GI50 [7] of 10.6 µM, a TGI [7] of over 25 µM and a GI50 [8] of 6.83 µM. For the same molecule, the TGI [8] was over 25 µM, the GI50 [9] was 7.38 µM and the TGI [9] was over 25 µM. The GI50 [10] was 5.35 µM and the TGI [10] was over 21.7 µM.

Cc1nc(-c2ccccc2)n2nc(NCCCN3CCOCC3)ncc12 was tested, and the GI50 [1] was over 25 µM, the TGI [1] was over 25 µM and the GI50 [2] was over 25 µM. The TGI [2] was over 25 µM, the GI50 [3] was 12.2 µM and the TGI [3] was over 25 µM. The GI50 [4] was over 25 µM, the TGI [4] was over 25 µM and the GI50 [5] was over 25 µM. For the same molecule, the TGI [5] was over 25 µM, the GI50 [6] was 21.2 µM and the TGI [6] was over 25 µM. The GI50 [7] was over 25 µM, the TGI [7] was over 25 µM and the GI50 [8] was over 25 µM. For the same molecule, the TGI [8] was over 25 µM, the GI50 [9] was over 25 µM and the TGI [9] was over 25 µM. It also gave a GI50 [10] of 10.5 µM and a TGI [10] of over 25 µM.

With FC(F)(c1ccc2ncccc2c1)c1nnc2ccc(-c3ccncc3)nn12 the GI50 [1] was over 100 µM, the TGI [1] was over 100 µM and the GI50 [2] was 62.7 µM. It also gave a TGI [2] of over 100 µM, a GI50 [3] of 22.3 µM and a TGI [3] of over 100 µM. It also gave a GI50 [4] of over 100 µM, a TGI [4] of over 100 µM and a GI50 [5] of 38.4 µM. It also gave a TGI [5] of over 100 µM, a GI50 [6] of over 100 µM and a TGI [6] of over 100 µM. For the same molecule, the GI50 [7] was 64.3 µM, the TGI [7] was over 100 µM and the GI50 [8] was 84.1 µM. For the same molecule, the TGI [8] was over 100 µM, the GI50 [9] was 2.21 µM and the TGI [9] was over 100 µM. It also gave a GI50 [10] of over 100 µM and a TGI [10] of over 100 µM.

CS(=O)(=O)CCNCc1cc(-c2cc3c(Nc4ccc(OCc5cccc(F)c5)c(Cl)c4)ncnc3s2)cs1 showed a GI50 [1] of 6.59 µM, a TGI [1] of 21.5 µM and a GI50 [2] of over 16.8 µM. It also gave a TGI [2] of over 25 µM, a GI50 [3] of 4.67 µM and a TGI [3] of over 17.6 µM. The GI50 [4] was 11 µM, the TGI [4] was over 25 µM and the GI50 [5] was 8.9 µM. The TGI [5] was over 25 µM, the GI50 [6] was 9.64 µM and the TGI [6] was over 25 µM. For the same molecule, the GI50 [7] was 11.3 µM, the TGI [7] was over 25 µM and the GI50 [8] was 16.5 µM. The TGI [8] was over 25 µM, the GI50 [9] was 9.89 µM and the TGI [9] was over 25 µM. The GI50 [10] was 12.8 µM and the TGI [10] was over 25 µM.

In the case of CCC(O)c1ccc(Br)cc1NC(=O)c1cccc(Cl)c1 (stereo not given), the GI50 [1] is reported as 20.5 µM, the TGI [1] is reported as 45.4 µM and the GI50 [2] is reported as 20 µM. It also gave a TGI [2] of 44.6 µM, a GI50 [3] of 24.6 µM and a TGI [3] of over 100 µM. For the same molecule, the GI50 [4] was 16.9 µM, the TGI [4] was 35 µM and the GI50 [5] was 15.9 µM. The TGI [5] was 45.5 µM, the GI50 [6] was 21.9 µM and the TGI [6] was 78.5 µM. The GI50 [7] was 23.4 µM, the TGI [7] was over 100 µM and the GI50 [8] was 23.7 µM. The TGI [8] was 77.9 µM, the GI50 [9] was 15 µM and the TGI [9] was 35.1 µM. For the same molecule, the GI50 [10] was 28.1 µM and the TGI [10] was 82.4 µM.
